Consider one compound from patent US11779628B2, “Use of cell-permeable peptide inhibitors of the JNK signal transduction pathway for the treatment of various diseases” (Xigen Inflammation Ltd., priority 2014, dated 2023).

One data set concerns Brown Norway rats, STZ. Put plainly: Diabetic retinopathy prevention study in STZ treated rat (IVT). In kind it is in vivo. The following applies: 0.2 and 2 μg/eye IVT. The text has this: The objective of this study was to determine the ability of XG-102 to prevent diabetic retinopathy when administered by intravitreal injections to streptozotocin (STZ)-treated (hyperglycemic) rats.
Sterile vials containing 0.0412 g of inducing agent (STZ) were pre-weighed, sealed and transferred to the dosing room for administration to Groups 2 to 4 animals and Spares on Day −7. A duplicate set of empty, appropriately labeled sterile vials were provided. The reconstituted STZ solution was filtered into these vials for dosing. The Reference Item, 0.9% NaCl, was administered as received. XG-102 was prepared using the correction factor 1.383. A stock solution equal to the highest dose level was prepared in vehicle, 0.9% Sodium Chloride for Injection, and sterile filtered through a 0.22 μm polyvinylidene difluoride (PVDF) filter. The lower dose levels were prepared by directly diluting the stock solution. Dose formulations were prepared once at appropriate concentrations to meet dosage level requirements. All dilutions were prepared by directly diluting the stock solution with vehicle. Three dosing aliquots (Days 1, 8 and 15) were prepared and stored in a freezer set to maintain −20° C. Aliquot(s) of each dose level were thawed at ambient temperature on each day of dosing and the solution maintained at room temperature for no longer than 6 hours. […]

For data set [1] the following is noted: human, in vivo, 1 h.
Protocol: The quantification (plasma) of XG-102 in plasma was evaluated in a subset of 32 patients located in one site. A venous blood sample (2 ml) was obtained using a Li-Heparin tube 60 minutes after sub-conjunctival administration of study treatment. The exact time when the sample was performed was entered in the space provided on the e-CRF. The blood sample was centrifuged for 10 minutes at 2,500 RPM at room temperature. After centrifugation, using a pipette, the plasma was transferred to two 1.5 ml cryotubes. The cryotubes were then placed in a freezer at −80° C. and were then subsequently sent in dry ice with a temperature data logger to the central laboratory responsible for the analysis. Upon receipt at the central laboratory, the samples were stored at −80° C. until analyzed.
The subject of a further data set is rats. Put plainly: Ocular MTD studies, sub-conjunctival administration. It is filed as in vivo, rat. An excerpt:
Despite technical advances in ocular surgery, the physical trauma of this procedure continues to induce post-operative ocular inflammation warranting treatment. In ocular tissue, arachidonic acid is metabolized by cyclooxygenase (COX) to prostaglandins (PG) which are the most important lipid-derived mediators of inflammation. Surgical trauma causes a trigger of the arachidonic acid cascade which in turn generates PGs by activation of COX-1 and COX-2. Phospholipids in the cell membrane are the substrate for phospholipase A to generate arachidonic acid from which a family of chemically distinct PGs and leukotriens are produced. The ‘golden standard’ for the treatment of ocular inflammation are topical corticosteroids and/or Non-Steroidal Anti-inflammatory Drugs (NSAIDs). Side effects reported with (short-term) corticosteroid use include cataract formation, increased Intra Ocular Pressure (IOP), increased susceptibility to viral infections and retardation of the corneal epithelial and stromal wound healing. In addition, prolonged treatment with corticosteroids have been known to induce systemic side effects such as glucose impairment, hypertension, development of glaucoma, visual acuity defects, loss of visual field, and posterior subcapsular cataract formation. […]

A value given as a limit tells only on which side of the number the result lay.

Take `CC(C)C[C@@H](NC(=O)[C@@H](Cc1ccccc1)NC(=O)[C@H]1CCCN1C(=O)[C@@H](CCC(N)=O)NC(=O)[C@H](NC(=O)[C@H]1CCCN1C(=O)[C@@H](CCCNC(=N)N)NC(=O)[C@@H](CO)NC(=O)[C@@H](CCC(N)=O)NC(=O)[C@H](N)CC(=O)O)C(C)C)C(=O)N[C@H](CC(N)=O)C(=O)N[C@H](CC(C)C)C(=O)N[C@@H](C(=O)N[C@@H](C(=O)N1CCC[C@@H]1C(=O)N[C@H](CCCNC(=N)N)C(=O)N[C@H](CCCCN)C(=O)N1CCC[C@@H]1C(=O)N[C@H](CCCNC(=N)N)C(=O)N1CCC[C@@H]1C(=O)N1CCC[C@@H]1C(=O)N[C@H](CCCNC(=N)N)C(=O)N[C@H](CCCNC(=N)N)C(=O)N[C@H](CCCNC(=N)N)C(=O)N[C@H](CCC(N)=O)C(=O)N[C@H](CCCNC(=N)N)C(=O)N[C@H](CCCNC(=N)N)C(=O)N[C@H](CCCCN)C(=O)N[C@H](CCCCN)C(=O)N[C@H](CCCNC(=N)N)C(=O)NCC(=O)O)[C@H](C)O)[C@H](C)O` [XG-102]: in the data set with Brown Norway rats, STZ, the “clinical signs, body weights, food consumption” value is reported as “no XG-102-related clinical signs or effects on body weights, body weight gains or food consumption” and the deaths result is reported as “no XG-102-related deaths during the study”. Moreover, the “XG-102 concentration in plasma” value in data set [1] is < 10 ng/mL. Besides, in the data set with rats, the “No Observed Adverse Effect Level (NOAEL)” value is recorded as “around 20 μg”.
